Results: patent US20170050957A1, “4-AMINO-6-(HETEROCYCLIC)PICOLINATES AND 6-AMINO-2-(HETEROCYCLIC)PYRIMIDINE-4-CARBOXYLATES AND THEIR USE AS HERBICIDES” (Dow AgroSciences LLC, priority 2013, published 2017)

System: Wheat and Barley and test plant species
Test: Post-emergent Test III, herbicidal activity in wheat and barley (Table 17; visual injury, GR20/GR50/GR80/GR90)
Assay type: in vivo
Details: 21 d; for Visual Growth Reduction (%) 21 Days After Application, CIRAR / Visual Growth Reduction (%) 21 Days After Application, GALAP / Visual Growth Reduction (%) 21 Days After Application, HORVS / Visual Growth Reduction (%) 21 Days After Application, KCHSC / Visual Growth Reduction (%) 21 Days After Application, LAMPU / Visual Growth Reduction (%) 21 Days After Application, MATCH / Visual Growth Reduction (%) 21 Days After Application, PAPRH / Visual Growth Reduction (%) 21 Days After Application, SASKR / Visual Growth Reduction (%) 21 Days After Application, SINAR / Visual Growth Reduction (%) 21 Days After Application, TRZAS / Visual Growth Reduction (%) 21 Days After Application, VERPE / Visual Growth Reduction (%) 21 Days After Application, VIOTR: post-emergent
Experimental: Post-emergent Test III. Seeds of the desired test plant species were planted in Sun Gro MetroMix® 306 planting mixture, which typically has a pH of 6.0 to 6.8 and an organic matter content of about 30 percent, in plastic pots with a surface area of 103.2 square centimeters (cm^2). When required to ensure good germination and healthy plants, a fungicide treatment and/or other chemical or physical treatment was applied. The plants were grown for 7-36 days (d) in a greenhouse with an approximate 14 hour (h) photoperiod which was maintained at about 18° C. during the day and 17° C. during the night. Nutrients and water were added on a regular basis and supplemental lighting was provided with overhead metal halide 1000-Watt lamps as necessary. The plants were employed for testing when they reached the second or third true leaf stage.
A weighed amount, determined by the highest rate to be tested, of each test compound was placed in a 25 mL glass vial and was dissolved in 4 mL of a 97:3 v/v mixture of acetone and DMSO to obtain concentrated stock solutions. […] The concentrated stock solutions obtained were diluted with 20 mL of an aqueous mixture containing acetone, water, isopropyl alcohol, DMSO, Agri-Dex crop oil concentrate, and X-77 surfactant in a 48:39:10:1.5:1.5:0.02 v/v ratio to obtain spray solutions containing the highest application rates. Additional application rates were obtained by serial dilution of 12 mL of the high rate solution into a solution containing 2 mL of 97:3 v/v mixture of acetone and DMSO and 10 mL of an aqueous mixture containing acetone, water, isopropyl alcohol, DMSO, Agri-Dex crop oil concentrate, and X-77 surfactant in a 48:39:10:1.5:1.5:0.02 v/v ratio to obtain 1/2×, 1/4×, 1/8× and 1/16× rates of the high rate. Compound requirements are based upon a 12 mL application volume at a rate of 187 liters per hectare (L/ha). Formulated compounds were applied to the plant material with an overhead Mandel track sprayer equipped with 8002E nozzles calibrated to deliver 187 L/ha over an application area of 0.503 square meters at a spray height of 18 inches (43 cm) above the average plant canopy height. Control plants were sprayed in the same manner with the solvent blank.
The treated plants and control plants were placed in a greenhouse as described above and watered by subirrigation to prevent wash-off of the test compounds. After 21 d, the condition of the test plants as compared with that of the untreated plants was determined visually and scored on a scale of 0 to 100 percent where 0 corresponds to no injury and 100 corresponds to complete kill. By applying the well-accepted probit analysis as described by J. Berkson in Journal of the American Statistical […], 48, 565 (1953) and by D. Finney in “Probit Analysis” Cambridge University Press (1952), the above data can be used to calculate GR20, GR50, GR80 and GR90 values, which are defined as growth reduction factors that correspond to the effective dose of herbicide required to kill or control 20 percent, 50 percent, 80 percent or 90 percent, respectively, of a target plant.

SMILES: Nc1c(F)c(-c2ccc3cc[nH]c3c2F)nc(C(=O)O)c1Cl [Compound 1.16, 4-Amino-3-chloro-5-fluoro-6-(7-fluoro-1H-indol-6-yl)picolinic acid]
- Visual Growth Reduction (%) 21 Days After Application, CIRAR (CIRAR, 17.5 g ai/ha): D (60-74)
- Visual Growth Reduction (%) 21 Days After Application, CIRAR (CIRAR, 35 g ai/ha): B (85-94)
- Visual Growth Reduction (%) 21 Days After Application, CIRAR (CIRAR, 70 g ai/ha): A (95-100)
- GR50, CIRAR (CIRAR, dose for 50 percent growth reduction, probit analysis): 9 g ai/ha
- GR80, CIRAR (CIRAR, dose for 80 percent growth reduction, probit analysis): 25 g ai/ha
- GR90, CIRAR (CIRAR, dose for 90 percent growth reduction, probit analysis): 43 g ai/ha
- Visual Growth Reduction (%) 21 Days After Application, GALAP (GALAP, 17.5 g ai/ha): F (30-44)
- Visual Growth Reduction (%) 21 Days After Application, GALAP (GALAP, 35 g ai/ha): E (45-59)
- Visual Growth Reduction (%) 21 Days After Application, GALAP (GALAP, 70 g ai/ha): A (95-100)
- GR50, GALAP (GALAP, dose for 50 percent growth reduction, probit analysis): 26 g ai/ha
- GR80, GALAP (GALAP, dose for 80 percent growth reduction, probit analysis): 34 g ai/ha
- GR90, GALAP (GALAP, dose for 90 percent growth reduction, probit analysis): 40 g ai/ha
- Visual Growth Reduction (%) 21 Days After Application, HORVS (HORVS, 17.5 g ai/ha): G (0-29)
- Visual Growth Reduction (%) 21 Days After Application, HORVS (HORVS, 35 g ai/ha): G (0-29)
- Visual Growth Reduction (%) 21 Days After Application, HORVS (HORVS, 70 g ai/ha): F (30-44)
- GR20, HORVS (HORVS, dose for 20 percent growth reduction, probit analysis): 44 g ai/ha
- Visual Growth Reduction (%) 21 Days After Application, KCHSC (KCHSC, 17.5 g ai/ha): C (75-84)
- Visual Growth Reduction (%) 21 Days After Application, KCHSC (KCHSC, 35 g ai/ha): B (85-94)
- Visual Growth Reduction (%) 21 Days After Application, KCHSC (KCHSC, 70 g ai/ha): A (95-100)
- GR50, KCHSC (KCHSC, dose for 50 percent growth reduction, probit analysis): 7 g ai/ha
- GR80, KCHSC (KCHSC, dose for 80 percent growth reduction, probit analysis): 20 g ai/ha
- GR90, KCHSC (KCHSC, dose for 90 percent growth reduction, probit analysis): 39 g ai/ha
- Visual Growth Reduction (%) 21 Days After Application, LAMPU (LAMPU, 17.5 g ai/ha): C (75-84)
- Visual Growth Reduction (%) 21 Days After Application, LAMPU (LAMPU, 35 g ai/ha): A (95-100)
- Visual Growth Reduction (%) 21 Days After Application, LAMPU (LAMPU, 70 g ai/ha): A (95-100)
- GR50, LAMPU (LAMPU, dose for 50 percent growth reduction, probit analysis): 3 g ai/ha
- GR80, LAMPU (LAMPU, dose for 80 percent growth reduction, probit analysis): 10 g ai/ha
- GR90, LAMPU (LAMPU, dose for 90 percent growth reduction, probit analysis): 19 g ai/ha
- Visual Growth Reduction (%) 21 Days After Application, MATCH (MATCH, 17.5 g ai/ha): B (85-94)
- Visual Growth Reduction (%) 21 Days After Application, MATCH (MATCH, 35 g ai/ha): A (95-100)
- Visual Growth Reduction (%) 21 Days After Application, MATCH (MATCH, 70 g ai/ha): A (95-100)
- GR50, MATCH (MATCH, dose for 50 percent growth reduction, probit analysis): 3 g ai/ha
- GR80, MATCH (MATCH, dose for 80 percent growth reduction, probit analysis): 9 g ai/ha
- GR90, MATCH (MATCH, dose for 90 percent growth reduction, probit analysis): 16 g ai/ha
- Visual Growth Reduction (%) 21 Days After Application, PAPRH (PAPRH, 17.5 g ai/ha): A (95-100)
- Visual Growth Reduction (%) 21 Days After Application, PAPRH (PAPRH, 35 g ai/ha): A (95-100)
- Visual Growth Reduction (%) 21 Days After Application, PAPRH (PAPRH, 70 g ai/ha): A (95-100)
- GR50, PAPRH (PAPRH, dose for 50 percent growth reduction, probit analysis): 0.0004 g ai/ha
- GR80, PAPRH (PAPRH, dose for 80 percent growth reduction, probit analysis): 0.0004 g ai/ha
- GR90, PAPRH (PAPRH, dose for 90 percent growth reduction, probit analysis): 0.0004 g ai/ha
- Visual Growth Reduction (%) 21 Days After Application, SASKR (SASKR, 17.5 g ai/ha): D (60-74)
- Visual Growth Reduction (%) 21 Days After Application, SASKR (SASKR, 35 g ai/ha): C (75-84)
- Visual Growth Reduction (%) 21 Days After Application, SASKR (SASKR, 70 g ai/ha): B (85-94)
- GR50, SASKR (SASKR, dose for 50 percent growth reduction, probit analysis): 10 g ai/ha
- GR80, SASKR (SASKR, dose for 80 percent growth reduction, probit analysis): 28 g ai/ha
- GR90, SASKR (SASKR, dose for 90 percent growth reduction, probit analysis): 78 g ai/ha
- Visual Growth Reduction (%) 21 Days After Application, SINAR (SINAR, 17.5 g ai/ha): B (85-94)
- Visual Growth Reduction (%) 21 Days After Application, SINAR (SINAR, 35 g ai/ha): A (95-100)
- Visual Growth Reduction (%) 21 Days After Application, SINAR (SINAR, 70 g ai/ha): A (95-100)
- GR50, SINAR (SINAR, dose for 50 percent growth reduction, probit analysis): 5 g ai/ha
- GR80, SINAR (SINAR, dose for 80 percent growth reduction, probit analysis): 11 g ai/ha
- GR90, SINAR (SINAR, dose for 90 percent growth reduction, probit analysis): 17 g ai/ha
- Visual Growth Reduction (%) 21 Days After Application, TRZAS (TRZAS, 17.5 g ai/ha): G (0-29)
- Visual Growth Reduction (%) 21 Days After Application, TRZAS (TRZAS, 35 g ai/ha): G (0-29)
- Visual Growth Reduction (%) 21 Days After Application, TRZAS (TRZAS, 70 g ai/ha): F (30-44)
- GR20, TRZAS (TRZAS, dose for 20 percent growth reduction, probit analysis): 41 g ai/ha
- Visual Growth Reduction (%) 21 Days After Application, VERPE (VERPE, 17.5 g ai/ha): A (95-100)
- Visual Growth Reduction (%) 21 Days After Application, VERPE (VERPE, 35 g ai/ha): A (95-100)
- Visual Growth Reduction (%) 21 Days After Application, VERPE (VERPE, 70 g ai/ha): A (95-100)
- GR50, VERPE (VERPE, dose for 50 percent growth reduction, probit analysis): 0.0004 g ai/ha
- GR80, VERPE (VERPE, dose for 80 percent growth reduction, probit analysis): 0.05 g ai/ha
- GR90, VERPE (VERPE, dose for 90 percent growth reduction, probit analysis): 1 g ai/ha
- Visual Growth Reduction (%) 21 Days After Application, VIOTR (VIOTR, 17.5 g ai/ha): E (45-59)
- Visual Growth Reduction (%) 21 Days After Application, VIOTR (VIOTR, 35 g ai/ha): D (60-74)
- Visual Growth Reduction (%) 21 Days After Application, VIOTR (VIOTR, 70 g ai/ha): C (75-84)
- GR50, VIOTR (VIOTR, dose for 50 percent growth reduction, probit analysis): 19 g ai/ha
- GR80, VIOTR (VIOTR, dose for 80 percent growth reduction, probit analysis): 56 g ai/ha
- GR90, VIOTR (VIOTR, dose for 90 percent growth reduction, probit analysis): 99 g ai/ha
